In US20210095322A1, “HIGH-PURITY STEVIOL GLYCOSIDES” (PureCircle USA Inc., priority 2018, published 2021):

Tests used:
[1] = aqueous solution; Ref: Celaya et al (2016); cited from earlier work
[2] = FEMA GRAS publication; cited from earlier work
[3] = Isosweet determination (2-AFC) vs sucrose in acidified water, sweetness potency; type: in vivo, human; details: pH = 3.2
Experimental: As an example, Reb AM was evaluated.

Compound | Solubility [1] [%] | Sweetness Perception Threshold Concentration [2] [ppm] | Sweetness Equivalent (ppm) in Water ([3]; 2.5% SE) [ppm] | Sweetness Potency in Water ([3]; 2.5% SE) [x sugar equivalent] | Sweetness Equivalent (ppm) in Water ([3]; 5.0% SE) [ppm] | Sweetness Potency in Water ([3]; 5.0% SE) [x sugar equivalent]
C=C1C[C@@]23CC[C@H]4[C@@](C)(CCC[C@@]4(C)C(=O)O[C@@H]4O[C@H](CO)[C@@H](O)[C@H](O)[C@H]4O)[C@@H]2CC[C@]1(O[C@@H]1O[C@H](CO)[C@@H](O)[C@H](O)[C@H]1O[C@@H]1O[C@H](CO)[C@@H](O)[C@H](O)[C@H]1O)C3 [Stevioside, stevioside] | <0.7 |  |  |  |  | 
C=C1C[C@@]23CC[C@H]4[C@@](C)(CCC[C@@]4(C)C(=O)O[C@@H]4O[C@H](CO)[C@@H](O)[C@H](O)[C@H]4O)[C@@H]2CC[C@]1(O[C@@H]1O[C@H](CO)[C@@H](O)[C@H](O[C@@H]2O[C@H](CO)[C@@H](O)[C@H](O)[C@H]2O)[C@H]1O[C@@H]1O[C@H](CO)[C@@H](O)[C@H](O)[C@H]1O)C3 [Reb A, rebaudioside A] | <0.7 | 30 | 94 | 266 | 299 | 167
